Experimental data: patent publication US8604016B2, “Heterocyclic inhibitors of glutaminase” (Calithera Biosciences Inc., priority 2011, dated 2013)

Biological target: recombinant form of Glutaminase 1 (GAC) (Homo sapiens, UniProt O94925)
Assay: Recombinant Enzyme Assay (GAC coupled to GDH, NADH absorbance, no preincubation)
Type: biochemical
Settings: no preincubation; read-out: GAC Delta N2 IC50 no
Method in brief: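 GAC (4 nM) in Tris-HCl pH 8.0 with 150 mM K2HPO4, EDTA, BSA, DTT, plus 4 units/ml GDH and 4 mM ADP, without preincubation. Absorbance at 340 nm was read kinetically for 15 min at 20° C. Slopes (mAU/min) were compared with DMSO-only and control-compound wells on the same plate.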

Structure (SMILES)	IC50 [nM]
O=C(Cc1cccnc1)Nc1nnc(CCSCCc2nnc(NC(=O)Cc3cccnc3)s2)s1 [Compound 638]	480

Same assay, conditions: no preincubation; read-out: GAC Delta N2 IC50 no preinc

Structure (SMILES)	IC50 [nM]
COc1ccccc1-c1cccc(CC(=O)Nc2nnc(CCCCc3nnc(NC(=O)Cc4cccc(-c5ccccc5OC)c4)s3)s2)c1 [Compound 326]	> 20000
CC(C)(C)OC(=O)Nc1cccc(CC(=O)Nc2nnc(CCCCc3nnc(NC(=O)Cc4cccc(NC(=O)OC(C)(C)C)c4)s3)s2)c1 [Compound 327]	> 20000
O=C(Cc1cccc(-n2cccc2)c1)Nc1nnc(CCCCc2nnc(NC(=O)Cc3cccc(-n4cccc4)c3)s2)s1 [Compound 330]	> 20000
O=C(Cc1cccc(-c2cccc(F)c2)c1)Nc1nnc(CCCCc2nnc(NC(=O)Cc3cccc(-c4cccc(F)c4)c3)s2)s1 [Compound 331]	> 20000
O=C(CCN1CCOCC1)OC(C(=O)Nc1nnc(CCCCc2nnc(NC(=O)C(OC(=O)CCN3CCOCC3)c3cccc(Cl)c3)s2)s1)c1cccc(Cl)c1 (centres unmarked) [Compound 332]	3300
O=C(Cc1ccccc1)Nc1nnc(CCCCc2nnc(NC(=O)Cc3ccccc3CO)s2)s1 [Compound 333]	100
O=C(Cc1ccccc1)Nc1ccc(CCCCc2nnc(NC(=O)C(OC(=O)CCN3CCOCC3)c3ccccc3)s2)nn1 (centres unmarked) [Compound 334]	640
COc1ccc(Cl)c(CC(=O)Nc2nnc(CCCCc3nnc(NC(=O)Cc4ccccc4)s3)s2)c1F [Compound 343]	160
O=C(Cc1ccccc1)Nc1nnc(CCCCc2nnc(NC(=O)Cc3c(Cl)ccc(O)c3F)s2)s1 [Compound 345]	160
O=C(Cc1ccccc1)Nc1nnc(CCCCc2nnc(NC(=O)Cc3ccc(F)c(O)c3F)s2)s1 [Compound 346]	120
O=C(Cc1ccccc1)Nc1nnc(CCSCCc2nnc(NC(=O)Cc3cccnc3)s2)s1 [Compound 347]	220
CCOC(=O)Nc1nnc(CCSCCc2nnc(NC(=O)OCC)s2)s1 [Compound 356]	> 20000
CC(=O)Nc1nnc(CCSCCc2nnc(N)s2)s1 [Compound 357]	> 20000
O=C(CCN1CCOCC1)OC(C(=O)Nc1nnc(CCCCc2nnc(NC(=O)C(O)c3cccc(Cl)c3)s2)s1)c1cccc(Cl)c1 (centres unmarked) [Compound 358]	1400
O=C(Cc1ccccc1)Nc1nnc(CCSCCc2nnc(NC(=O)Cc3ccccn3)s2)s1 [Compound 359]	380
O=C(Cc1ccncc1)Nc1nnc(CCSCCc2nnc(NC(=O)Cc3ccncc3)s2)s1 [Compound 361]	1800
O=C(Cc1cccc(Cn2cccn2)c1)Nc1nnc(CCCCc2nnc(NC(=O)Cc3cccc(Cn4cccn4)c3)s2)s1 [Compound 362]	350
O=C(Cc1cccc(-n2ccnc2)c1)Nc1nnc(CCCCc2nnc(NC(=O)Cc3cccc(-n4ccnc4)c3)s2)s1 [Compound 363]	65
CCOC(=O)Nc1nnc(CCCCc2nnc(NC(=O)Cc3ccccc3)s2)s1 [Compound 369]	810
CC(C)COC(=O)Nc1nnc(CCCCc2nnc(NC(=O)Cc3ccccc3)s2)s1 [Compound 370]	280
O=C(Cc1ccccc1)Nc1nnc(CCSCc2nnc(NC(=O)Cc3cccc(Cl)c3)s2)s1 [Compound 372]	160
O=C(Cc1ccccc1)Nc1nnc(CCSCc2nnc(NC(=O)Cc3ccccn3)s2)s1 [Compound 373]	170
O=C(Cc1ccccc1)Nc1nnc(CCCCc2nnc(NC(=O)OCc3ccccc3)s2)s1 [Compound 374]	260
O=C(Cc1ccccc1)Nc1nnc(CCSCc2nnc(NC(=O)C(O)c3cccc(Cl)c3)s2)s1 (centres unmarked) [Compound 376]	350
O=C(Cc1ccccc1)Nc1nnc(CCSCc2nnc(NC(=O)[C@@H](O)c3ccccc3)s2)s1 [Compound 377]	280
O=C(Cc1ccccc1)Nc1nnc(CCSCc2nnc(NC(=O)Cc3cccc(OCCN4CCOCC4)c3)s2)s1 [Compound 378]	220
COC(=O)Nc1nnc(CCCCc2nnc(NC(=O)Cc3ccccc3)s2)s1 [Compound 387]	1200
CCCCOC(=O)Nc1nnc(CCCCc2nnc(NC(=O)Cc3ccccc3)s2)s1 [Compound 388]	210
